According to patent US20080200345A1, “HIGH THROUGHPUT METHOD TO IDENTIFY LIGANDS FOR CELL ATTACHMENT” (priority 2003, published 2008):

Tested on: MC3T3-E1 cells
Assay: ECM screen: adhesion of MC3T3-E1 osteoblast cells to immobilized adhesion ligands (nuclei count)
Assay type: cell-based
Details: best factors approach
Description: A statistical design was developed with special consideration of the surface chemistry requirements. In particular, in this experiment the scenario shown in FIG. 6 was used, wherein the overall adhesion ligand density was kept constant from well to well and only the adhesion ligand composition was allowed to change. In other words, the concentration of a single adhesion ligand could be different from well to well, but each well has the same amount of adhesion ligand immobilized overall. This scenario is further described above. An example of such design is shown in the spreadsheet in FIG. 7. The top row in FIG. 7 lists the 10 cell adhesion ligands used in this particular screen. The first column is a list of the experimental points that translate into a well in the 96-well plate, e.g., 52 wells in this case. The numbers in the spreadsheet are the actual volumes (in µL) of factor that is added to a particular well. In this particular design, factors get added to the wells at three volumes, e.g., 5 µL, 25 µL, or 50. mu.L. The total well volume in this case is 50 µL. Thus, for wells where one factor is added at 50 µL, the final well composition will comprise a single adhesion ligand covalently immobilized on the well surface. Accordingly, if 25 µL of a factor is added to a well, a second factor is added at 25 µL also, and the final well composition will comprise a mixture of two different cell adhesion ligands covalently immobilized on the well surface. When 5 µL of a factor are added, nine other factors are added at 5 µL each, as well, thus resulting in wells that comprise a mixture of all 10 cell adhesion ligands on the well surface. These experimental points containing all 10 adhesion ligands are called “mid points” and are an integral part of the statistical design in this example.
With reference now to FIG. 8, a 96-well plate layout is shown, which was translated from the particular statistical design shown in FIG. 7. In particular, the 96-well plate includes the well compositions indicated in FIG. 7, e.g., cell adhesion ligand combinations immobilized at the bottom of each well. In particular, the experimental runs in FIG. 7 correspond to rows/columns in FIG. 8, as follows: runs 1-10 in the design in FIG. 7 represent row B, columns 2-11, respectively on the plate layout in FIG. 8; runs 11-20 represent row C, columns 2-11; runs 21-30 represent row D, columns 2-11; runs 31-40 represent row E, columns 2-11; runs 41-50 represent row F, columns 2-11 and runs 51 and 52 represent row G, columns 2 and 3, respectively. As shown by the statistical design in FIG. 7 and the corresponding 96-well plate layout in FIG. 8, it is an embodiment of the present invention that, in addition to mixtures of agents, single agents can be placed in the receptacles. […]

Substance | Effect on cell count, mixture-model analysis (Ln(cell count-10% serum+1) vs. deviation from reference blend, FIG. 12) | Effect on cell count, mixture-model analysis (Ln(cell count-no serum+1) vs. deviation from reference blend, FIG. 11)
poly-L-lysine | diminishes | marginal effect
laminin | positive effect | increase the cell count
